MIC, HC50 and HC5 data for 22 substances are collected here from ChEMBL document CHEMBL6134856, “Rapid Response Antimicrobial Peptide Design Strategy Driven by Meta-Learning for Emerging Drug-Resistant Pathogens” (J Med Chem, 2025).

For series [1], the system named is Acinetobacter baumannii. The series is described as follows: Antimicrobial activity against SAM/CTX/AK/CRO/CN drugs-resistant Acinetobacter baumannii 0004 assessed as inhibition of bacterial growth incubated for approximately 18 hrs by resazurin dye based broth microdilution assay. It is filed as functional.
For another series, the system named is Staphylococcus aureus. The series is described as follows: Antimicrobial activity against Staphylococcus aureus ATCC 25923 assessed as inhibition of bacterial growth incubated for approximately 18 hrs by resazurin dye based broth microdilution assay. It is filed as functional.
A further series has as its system Candida albicans. Kind of series: Antimicrobial activity against Candida albicans ATCC 14053 assessed as inhibition of bacterial growth incubated for approximately 18 hrs by resazurin dye based broth microdilution assay. It counts as functional. A general note: Resazurin is reduced to fluorescent resorufin, in cell work by metabolically active cells.
Series [2] can be described thus: Hemolytic activity in Sprague-Dawley rat erythrocytes incubated for 1 hr by multifunctional microplate reader analysis. It is filed as toxicity, cell-based, Erythrocyte. As to conditions: for HC50 at 1 h: Sprague-Dawley, erythrocytes; for HC5: erythrocyte, 1 h.
Series [3] has as its system Acinetobacter baumannii. Kind of series: Antimicrobial activity against SAM/CTX/AK/CRO/CN drugs-resistant Acinetobacter baumannii 0101 assessed as inhibition of bacterial growth incubated for approximately 18 hrs by resazurin dye based broth microdilution assay. It counts as functional.
For series [4], the system named is Acinetobacter baumannii. The series is described as follows: Antimicrobial activity against CTX/AK/CRO drugs-resistant Acinetobacter baumannii 0110 assessed as inhibition of bacterial growth incubated for approximately 18 hrs by resazurin dye based broth microdilution assay. It is filed as functional.
Series [5] relates to Acinetobacter baumannii. The series is described as follows: Antimicrobial activity against CTX/CRO/CN drugs-resistant Acinetobacter baumannii 0214 assessed as inhibition of bacterial growth incubated for approximately 18 hrs by resazurin dye based broth microdilution assay. It is filed as functional.
Series [6] deals with Acinetobacter baumannii. The series is described as follows: Antimicrobial activity against SAM/CTX/CRO/CN drugs-resistant Acinetobacter baumannii 0320 assessed as inhibition of bacterial growth incubated for approximately 18 hrs by resazurin dye based broth microdilution assay. It is filed as functional.
For series [7], the system named is Acinetobacter baumannii. Kind of series: Antimicrobial activity against SAM-resistant Acinetobacter baumannii 0413 assessed as inhibition of bacterial growth incubated for approximately 18 hrs by resazurin dye based broth microdilution assay. It counts as functional.

Some results are limits rather than exact numbers.

A word on the MIC: it is the lowest concentration that inhibits growth of the organism. For H-KLKRWLVWLIRKLW-OH, the MIC in the series on Acinetobacter baumannii [1] is 16 µM.
As usually defined, the HC50 is the concentration giving 50% haemolysis. Read a low HC50 as more damage to red cells. Consider H-RLWKIWLVWIRWRNQK-OH, for which the MIC in the series on Acinetobacter baumannii [1] was 16 µM; in the series on Staphylococcus aureus, > 32 µM; in the series on Candida albicans, > 32 µM. Moreover, in series [2], the HC50 at 1 h is 330 µM. In series [2], this substance displayed an HC5 of 27.41 µM.
Take H-RWRKIWFLWRYKIW-OH: the MIC in the series with Acinetobacter baumannii [1] worked out at 128 µM.
With H-FWKKVFKWIWRVLHNFG-OH, the MIC in the series with Acinetobacter baumannii [1] was 8 µM. In [2], this substance had an HC50 at 1 h of 12.6 µM and an HC5 of 1.28 µM.
Consider H-GLWKRWKKVLWGAKNKI-OH, for which the MIC was determined as 2 µM in the series on Acinetobacter baumannii [1]; 16 µM in the series with Staphylococcus aureus; 8 µM with Candida albicans; 4 µM in the series on Acinetobacter baumannii [3]; 4 µM in the series on Acinetobacter baumannii [4]; 4 µM in the series with Acinetobacter baumannii [5]. The MIC with Acinetobacter baumannii [6] and in the series on Acinetobacter baumannii [7] was 2 µM in each case. The HC50 at 1 h in series [2] was > 256 µM. Moreover, the HC5 in series [2] is > 256 µM.
On to H-KIRWLLYWIRRKRL-OH, for which, in the series on Acinetobacter baumannii [1], the MIC was found to be 16 µM.
Turning to H-LWKILKKIWRVLKNWN-OH, the results for the MIC in the series on Acinetobacter baumannii [1], with Staphylococcus aureus and with Candida albicans were 4 µM, 8 µM and 32 µM, respectively. For the same substance, the concentration for 50% haemolysis (HC50) at 1 h in [2] stood at 35.9 µM. The HC5 in series [2] turned out to be 7.59 µM.
As for H-RQIKIWFQNRRWGLQLK-OH, the MIC in the series with Acinetobacter baumannii [1] is 16 µM; with Staphylococcus aureus, > 32 µM; in the series with Candida albicans, > 32 µM; with Acinetobacter baumannii [3] it was 16 µM; with Acinetobacter baumannii [4] it was 16 µM; in the series with Acinetobacter baumannii [5], 16 µM. Moreover, the MIC with Acinetobacter baumannii [6] came out at 16 µM; in the series with Acinetobacter baumannii [7] it was 8 µM. Also, the HC50 at 1 h in series [2] is > 256 µM. Moreover, the HC5 in series [2] was > 256 µM.
Regarding H-IWLAVWKGLLKRWLH-OH, the MIC was 2 µM with Acinetobacter baumannii [1], 2 µM in the series on Staphylococcus aureus and 16 µM in the series with Candida albicans. In [2], this substance gave an HC50 at 1 h of 10.5 µM. For the same substance, the HC5 in series [2] was 1.17 µM.
In the case of H-KRIWRKILWWIKWR-OH, the MIC with Acinetobacter baumannii [1] came to 8 µM.
Take H-WFKKLLKLALKWAKYA-OH: the values for the MIC with Acinetobacter baumannii [1], with Staphylococcus aureus and in the series on Candida albicans were 4 µM, 2 µM and > 32 µM, respectively. Further, the concentration for 50% haemolysis (HC50) at 1 h in [2] amounted to 13.1 µM. The substance also returned an HC5 in series [2] of 1.46 µM.
For H-RLWKIWWKIWRVLI-OH, the MIC in the series with Acinetobacter baumannii [1] came to 16 µM.
Take H-KWKIFKRIVGRILRYLR-OH: the MIC is 4 µM in the series with Acinetobacter baumannii [1], 8 µM with Staphylococcus aureus and > 32 µM in the series with Candida albicans. Also, in [2], the HC50 at 1 h was 15.7 µM. For the same substance, the HC5 in [2] worked out at 1.47 µM.
On the same counts, the results for H-RRRLILWILWRRLR-OH are 4 µM, 8 µM, > 32 µM, 166 µM and 10.09 µM.
As to H-RLIKIWWIYRRKWR-OH, in the series on Acinetobacter baumannii [1], the MIC worked out at 128 µM.
As to H-KWFKKLPKILHKLAKKW-OH, the MIC is 2 µM with Acinetobacter baumannii [1]; 2 µM with Staphylococcus aureus; > 32 µM in the series on Candida albicans; 2 µM with Acinetobacter baumannii [3]; 2 µM in the series on Acinetobacter baumannii [4]; 4 µM with Acinetobacter baumannii [5]. Moreover, the MIC in the series with Acinetobacter baumannii [6] and with Acinetobacter baumannii [7] was 2 µM throughout. Besides, in [2], the HC50 at 1 h was determined as 294 µM. The substance further showed an HC5 in series [2] of 38.67 µM.
On to H-RIRFKWRWWMRIRLKWY-OH, for which the results for the MIC with Acinetobacter baumannii [1], in the series on Staphylococcus aureus and in the series with Candida albicans were 16 µM, > 32 µM and > 32 µM, respectively. Further, the HC50 at 1 h in series [2] was > 256 µM. Moreover, the HC5 in [2] is > 256 µM.
Take H-VLAANRLVRRLAQKIAR-OH: the values for the MIC in the series on Acinetobacter baumannii [1], in the series on Staphylococcus aureus and with Candida albicans were 32 µM, > 32 µM and 16 µM, respectively. Also, the concentration for 50% haemolysis (HC50) at 1 h in series [2] was > 256 µM. In addition, the HC5 in series [2] was > 256 µM.
As for H-KWARRLVYLIANYWKKR-OH, the values for the minimum inhibitory concentration (MIC) with Acinetobacter baumannii [1], in the series with Staphylococcus aureus and with Candida albicans were 2 µM, > 32 µM and > 32 µM, respectively. In addition, in series [2], the HC50 at 1 h was found to be 117 µM. In series [2], the HC5 worked out at 14.63 µM.
As to H-AWKAKLKRLAIAWKR-OH, the MIC was 4 µM with Acinetobacter baumannii [1]; > 32 µM in the series with Staphylococcus aureus; 8 µM in the series on Candida albicans; 8 µM in the series on Acinetobacter baumannii [3]; 8 µM with Acinetobacter baumannii [4]; 4 µM in the series with Acinetobacter baumannii [5]. Moreover, the MIC in the series on Acinetobacter baumannii [6] and with Acinetobacter baumannii [7] was 4 µM throughout. Also, the HC50 at 1 h in [2] was > 256 µM. Also, the HC5 in [2] was > 256 µM.
Regarding H-RIWVLIYRWYRKWY-OH, in the series with Acinetobacter baumannii [1], the MIC stood at 32 µM.
Consider H-GWAKRLVQRLADWLRKF-OH, for which the figures for the MIC with Acinetobacter baumannii [1], with Staphylococcus aureus and in the series on Candida albicans were 2 µM, 8 µM and > 32 µM, respectively. For the same substance, the HC50 at 1 h in series [2] was 43.9 µM. The substance further showed an HC5 in series [2] of 7.22 µM.
